Laboratory results from US10406230B2, “Exendin-4 analogue pegylated with polyethylene glycol or derivative thereof, preparation method thereof, and pharmaceutical composition for preventing or treating diabetes, containing same as active ingredient” (priority 2011, dated 2019).
pIC50: −log10 of the molar value.

How the values were obtained:
[1] = system: Type 2 diabetic C57BL/6 db/db mice; assay: Low blood glucose sustainability in non-fasting type 2 diabetic mice; type: in vivo; details: 25 nmol/kg intraperitoneal
Experimental: The following experiment was performed to evaluate low blood glucose sustainability of C40 site specific PEG bound exendin-4 composition according to the present invention in Type 2 diabetic mice.
Type 2 diabetic C57BL/6 db/db mice (male, 4-5 weeks old, Central Lab. Animal Inc.) were used, and animals were exposed to light at 12 hours cycle and were grown after having stabilized two week by allowing free intake of foods and water. The experimental animals were managed following the guideline of National Institute of Health (NIH) and authorized by Institutional Animal Care and Use Committee of Sungkyunkwan University, and the experiment was performed humanely.
C40-PEG5K-Ex4 (linear), C40-PEG20K-Ex4 (linear), C40-PEG20K-Ex4 (branch), C40-PEG23K-Ex4 (trimer) and C40-PEG50K-Ex4 (trimer) prepared from the Example 1 to 5 and Lys^27-PEG20K-Ex4 prepared in Comparative example 1b were intraperitoneally injected with 25 nmol/kg dose to male db/db mice (6-7 weeks old), blood was collected from tail vein of mice following the float time: 0, 0.5, 1, 2, 3, 4, 6, 8, 12, 24, 36, 48, 60, 72, 96 hours and blood glucose concentration was measured with ACCU-CHEK Sensor (Roche Diagnostics Corp., USA). Afterwards, the low blood glucose sustaining time (blood glucose level<8.35 mmol/l (150 mg/dL)) was additionally measured and shown in Table 4 and FIG. 12. In the present experiment, exendin-4 was used as the control group.

[2] = biological target: T1, GLP-1 receptor (GLP-1R) (Rattus norvegicus, UniProt P32301); assay: RIN-m5F cell receptor binding affinity (I-125 exendin-4 displacement)
T1 construct: Islet cells (RIN-m5F, ATCC, Manassas, Va.) expressing vast quantity of GLP-1 receptor (GLP-1R) were inoculated in 12-wells plates; host or cells: RIN-m5F
T1 sequence (P32301 22-463): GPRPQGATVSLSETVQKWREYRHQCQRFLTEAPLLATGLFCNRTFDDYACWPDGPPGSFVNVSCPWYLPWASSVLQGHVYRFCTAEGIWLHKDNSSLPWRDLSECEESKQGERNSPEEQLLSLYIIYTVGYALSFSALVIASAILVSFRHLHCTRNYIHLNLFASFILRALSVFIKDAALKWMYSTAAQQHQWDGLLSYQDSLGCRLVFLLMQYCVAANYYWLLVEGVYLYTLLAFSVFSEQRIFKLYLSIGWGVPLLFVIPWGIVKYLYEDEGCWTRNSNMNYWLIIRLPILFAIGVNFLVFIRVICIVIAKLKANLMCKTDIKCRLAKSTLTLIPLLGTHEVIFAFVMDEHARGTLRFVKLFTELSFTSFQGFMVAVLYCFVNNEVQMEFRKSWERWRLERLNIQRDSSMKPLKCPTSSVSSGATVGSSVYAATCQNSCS
Experimental: Thorough washing was done with PBS including […] bovine serum albumin after two hours.

1b (Lys^27-PEG20K-Ex4): exendin-4 (SEQ ID NO: 2) PEGylated at Lys27 amine with 20 kDa mPEG-SPA [reference compound]
Blood glucose level (average) ([1]; time 0 h): 24.13 mmol/L | Blood glucose level (average) ([1]; time 0.5 h): 7.97 mmol/L | Blood glucose level (average) ([1]; time 1 h): 6.56 mmol/L | Blood glucose level (average) ([1]; time 2 h): 5.24 mmol/L | Blood glucose level (average) ([1]; time 3 h): 4.22 mmol/L | Blood glucose level (average) ([1]; time 4 h): 4.29 mmol/L | Blood glucose level (average) ([1]; time 6 h): 4.85 mmol/L | Blood glucose level (average) ([1]; time 8 h): 5.13 mmol/L | Blood glucose level (average) ([1]; time 12 h): 5.40 mmol/L | Blood glucose level (average) ([1]; time 24 h): 12.98 mmol/L | Blood glucose level (average) ([1]; time 36 h): 17.34 mmol/L | Blood glucose level (average) ([1]; time 48 h): 20.45 mmol/L | Blood glucose level (average) ([1]; time 60 h): 23.02 mmol/L

Example 1: exendin-4-Cys (cysteine at C-terminal #40 site, SEQ ID NO: 1) bound with linear 5 kDa mPEG-MAL
pIC50 ([2]; RIN-m5F cells, competition with 30 pM I-125 exendin-4 (9-39), 2 hours): 8.98 | activity (GLP-1 receptor affinity) better than Comparative example 1a (Lys^12-PEG5K-Ex4) ([2]; ratio of IC50 values): 6 times | activity (GLP-1 receptor affinity) better than Comparative example 1b (Lys^27-PEG5K-Ex4) ([2]; ratio of IC50 values): twice | activity (GLP-1 receptor affinity) better than Comparative example 2 (Nter-PEG5K-Ex4) ([2]; ratio of IC50 values): 120 times | Blood glucose level (average) ([1]; time 0 h): 23.38 mmol/L | Blood glucose level (average) ([1]; time 0.5 h): 7.62 mmol/L | Blood glucose level (average) ([1]; time 1 h): 7.36 mmol/L | Blood glucose level (average) ([1]; time 2 h): 5.09 mmol/L | Blood glucose level (average) ([1]; time 3 h): 4.46 mmol/L | Blood glucose level (average) ([1]; time 4 h): 4.93 mmol/L | Blood glucose level (average) ([1]; time 6 h): 5.73 mmol/L | Blood glucose level (average) ([1]; time 8 h): 9.04 mmol/L | Blood glucose level (average) ([1]; time 12 h): 16.2 mmol/L | Blood glucose level (average) ([1]; time 24 h): 21.1 mmol/L

Example 2: exendin-4-Cys (SEQ ID NO: 1) bound at C40 with linear 20 kDa mPEG-MAL
low blood glucose sustaining time (time required for blood glucose level increasing back to 8.35 mmol/l) ([1]; blood glucose level<8.35 mmol/l (150 mg/dL)): 23.2 h | Blood glucose level (average) ([1]; time 0 h): 24.28 mmol/L | Blood glucose level (average) ([1]; time 0.5 h): 7.96 mmol/L | Blood glucose level (average) ([1]; time 1 h): 6.13 mmol/L | Blood glucose level (average) ([1]; time 2 h): 5.29 mmol/L | Blood glucose level (average) ([1]; time 3 h): 4.18 mmol/L | Blood glucose level (average) ([1]; time 4 h): 4.34 mmol/L | Blood glucose level (average) ([1]; time 6 h): 4.9 mmol/L | Blood glucose level (average) ([1]; time 8 h): 4.57 mmol/L | Blood glucose level (average) ([1]; time 12 h): 5.86 mmol/L | Blood glucose level (average) ([1]; time 24 h): 8.54 mmol/L | Blood glucose level (average) ([1]; time 36 h): 11.47 mmol/L | Blood glucose level (average) ([1]; time 48 h): 15.34 mmol/L | Blood glucose level (average) ([1]; time 60 h): 20.45 mmol/L | Blood glucose level (average) ([1]; time 72 h): 23.02 mmol/L

Example 3: exendin-4-Cys (SEQ ID NO: 1) bound at C40 with branch type 20 kDa mPEG-MAL
Blood glucose level (average) ([1]; time 0 h): 24.44 mmol/L | Blood glucose level (average) ([1]; time 0.5 h): 7.86 mmol/L | Blood glucose level (average) ([1]; time 1 h): 6.89 mmol/L | Blood glucose level (average) ([1]; time 2 h): 5.04 mmol/L | Blood glucose level (average) ([1]; time 3 h): 4.15 mmol/L | Blood glucose level (average) ([1]; time 4 h): 4.66 mmol/L | Blood glucose level (average) ([1]; time 6 h): 4.67 mmol/L | Blood glucose level (average) ([1]; time 8 h): 5.11 mmol/L | Blood glucose level (average) ([1]; time 12 h): 7.89 mmol/L | Blood glucose level (average) ([1]; time 24 h): 15.09 mmol/L | Blood glucose level (average) ([1]; time 36 h): 20.14 mmol/L | Blood glucose level (average) ([1]; time 48 h): 24.21 mmol/L | Blood glucose level (average) ([1]; time 60 h): 23.76 mmol/L
